Results published in the NIST ThermoML archive (doi:10.1021/je800110r).
“And” between values parts separate entries of the source, which are not always exact repeats. Equal values may be shown once.

Conditions: 283.14 K, Liquid, Vibrating tube method

CCCCCCCCCC [decane]
Conditions | mass density
322 kPa | 737.5 kg/m3
338 kPa | 737.7 kg/m3
385 kPa | 737.6 kg/m3
479 kPa | 737.8 kg/m3
514 kPa | 737.8 kg/m3
551 kPa | 737.8 kg/m3
574 kPa | 737.8 kg/m3
589 kPa | 737.8 kg/m3
615 kPa | 737.9 kg/m3
633 kPa | 737.9 kg/m3
651 kPa | 737.9 kg/m3
665 kPa | 737.9 kg/m3
683 kPa | 737.8 kg/m3
700 kPa | 737.8 kg/m3
721 kPa | 737.8 kg/m3
740 kPa | 737.9 kg/m3
763 kPa | 738 kg/m3
783 kPa | 737.9 kg/m3
808 kPa | 738 kg/m3
833 kPa | 738 kg/m3
857 kPa | 738 kg/m3
877 kPa | 738 kg/m3
899 kPa | 738 kg/m3
931 kPa | 738.1 kg/m3
966 kPa | 738.2 kg/m3
995 kPa | 738.1 kg/m3
1025 kPa | 738.1 kg/m3
1066 kPa | 738.2 kg/m3
1103 kPa | 738.2 kg/m3
1133 kPa | 738.1 kg/m3
1173 kPa | 738.3 kg/m3
1217 kPa | 738.3 kg/m3
1247 kPa | 738.2 kg/m3
1299 kPa | 738.3 kg/m3
1359 kPa | 738.3 kg/m3
1404 kPa | 738.5 kg/m3
1536 kPa | 738.5 kg/m3
2661 kPa | 739.4 kg/m3
2677 kPa | 739.3 kg/m3
2694 kPa | 739.3 kg/m3
2848 kPa | 739.5 kg/m3
2888 kPa | 739.4 kg/m3
2910 kPa | 739.5 kg/m3
2926 kPa | 739.5 kg/m3
2942 kPa | 739.5 kg/m3
2959 kPa | 739.6 kg/m3
2987 kPa | 739.6 kg/m3
3024 kPa | 739.7 kg/m3
3042 kPa | 739.6 kg/m3
3053 kPa | 739.6 kg/m3
3064 kPa | 739.7 kg/m3
3084 kPa | 739.6 kg/m3
3192 kPa | 739.6 kg/m3
3239 kPa | 739.7 kg/m3
3249 kPa | 739.8 kg/m3
3261 kPa | 739.8 kg/m3
3321 kPa | 739.8 kg/m3
3332 kPa | 739.8 kg/m3
3814 kPa | 740.2 kg/m3
3824 kPa | 740.1 kg/m3
3837 kPa | 740.2 kg/m3
3847 kPa | 740.3 kg/m3
3862 kPa | 740.2 kg/m3
3876 kPa | 740.1 kg/m3
3887 kPa | 740.3 kg/m3
4382 kPa | 740.6 kg/m3
4686 kPa | 740.8 kg/m3
4709 kPa | 740.9 kg/m3
4730 kPa | 740.8 kg/m3
4749 kPa | 740.9 kg/m3
4854 kPa | 741 kg/m3
4879 kPa | 741 kg/m3
4901 kPa | 741 kg/m3
4924 kPa | 740.9 kg/m3
4947 kPa | 741 kg/m3
4968 kPa | 741.1 kg/m3
4992 kPa | 741.1 kg/m3
5006 kPa | 741.1 kg/m3
5028 kPa | 741 kg/m3
5042 kPa | 741 kg/m3
5058 kPa | 741.1 kg/m3
5077 kPa | 741.1 kg/m3
5094 kPa | 741.2 kg/m3
5117 kPa | 741.1 kg/m3
5136 kPa | 741 kg/m3
5156 kPa | 741.1 kg/m3
5176 kPa | 741.3 kg/m3
5205 kPa | 741.3 kg/m3
5223 kPa | 741.2 kg/m3
5244 kPa | 741.2 kg/m3
5265 kPa | 741.2 kg/m3
5316 kPa | 741.3 kg/m3
5598 kPa | 741.5 kg/m3
5751 kPa | 741.6 kg/m3
5767 kPa | 741.6 kg/m3
5776 kPa | 741.6 kg/m3
5781 kPa | 741.6 kg/m3
5783 kPa | 741.6 kg/m3
5784 kPa | 741.5 kg/m3 and 741.7 kg/m3
5793 kPa | 741.7 kg/m3
5798 kPa | 741.6 kg/m3
5802 kPa | 741.6 kg/m3
5814 kPa | 741.7 kg/m3
5816 kPa | 741.6 kg/m3
5823 kPa | 741.7 kg/m3
5833 kPa | 741.6 kg/m3
5852 kPa | 741.7 kg/m3
5869 kPa | 741.7 kg/m3
5881 kPa | 741.7 kg/m3
5888 kPa | 741.6 kg/m3
5891 kPa | 741.7 kg/m3
5895 kPa | 741.8 kg/m3
5898 kPa | 741.7 kg/m3
5902 kPa | 741.8 kg/m3
5907 kPa | 741.7 kg/m3
5910 kPa | 741.7 kg/m3
5914 kPa | 741.7 kg/m3
5929 kPa | 741.7 kg/m3
6176 kPa | 741.9 kg/m3
6202 kPa | 741.9 kg/m3
6218 kPa | 741.8 kg/m3
6237 kPa | 741.9 kg/m3
6251 kPa | 741.8 kg/m3
6269 kPa | 741.9 kg/m3
6284 kPa | 742 kg/m3
6304 kPa | 741.9 kg/m3
6319 kPa | 742 kg/m3
6335 kPa | 742 kg/m3
6350 kPa | 741.9 kg/m3
6373 kPa | 742.1 kg/m3
6391 kPa | 742.1 kg/m3
6409 kPa | 742 kg/m3
6431 kPa | 742 kg/m3
6452 kPa | 742 kg/m3
6465 kPa | 742.1 kg/m3
6481 kPa | 742 kg/m3
